From article PMC4022547 (Molecular Brain, 2014)

How the values were obtained:
hα6 + hβ4 + hβ3 nAChR = hα6 + hβ4 + hβ3 nAChR (Homo sapiens, UniProt P30926+Q15825); assay: Oocyte two-electrode voltage clamp; assay type: cell-based
Experimental: (§1) We planned to introduce identical amounts of cRNA, presumably producing equal amounts of each subunit protein, into oocytes largely due to lack of information about the levels of mRNA for each subunits that compose α6*-nAChRs in neurons or other cells. Concentrations of cRNAs for each nAChR α and β subunits (WT, mutant or variant) were adjusted to 500 ng μL^−1. We provisionally assumed that hα6 or its variants in association with hβ2 or hβ4 subunits would form complexes having 2:3 and/or 3:2 ratios of the indicated subunits and that oocytes also injected with WT or mutant form of β3 subunits (i.e., β3^V9’S) would express nAChR with 2:2:1 ratios of α:β:(β3 or β3^V9’S) subunits. For expression of binary nAChRs (i.e., two subunit containing nAChRs; α + β but not β3) cRNA mixtures were prepared by mixing 1 μL of cRNA for each subunit and an additional μL of RNAse free water (i.e., total volume 3 μL). Similarly for expression of ternary nAChRs [i.e., three subunit containing nAChRs; (α + β) + (β3 or β3^V9’S)] cRNA mixtures were prepared by mixing 1 μL of cRNA for each subunit. Several preparations of each mixture were prepared and stored at −80°C until further use. Injection of 138 nL of cRNA, out of 3 μL cRNA mixtures, into each oocyte would deliver ~23 ng of cRNA for each subunit whether binary or ternary nAChRs are expressed.
(§2) Two to 5 days after injection, oocytes were placed in a small-volume chamber and continuously perfused with OR2. The chamber was grounded through an agarose bridge. The oocytes were voltage-clamped at −70 mV (unless otherwise noted) to measure agonist or antagonist induced currents using Axoclamp 900A and pClamp 10.2 software (Molecular Devices, Sunnyvale, CA). The current signal was low-pass filtered at 10 Hz with the built-in low-pass Bessel filter in the Axoclamp 900A and digitized at 20 Hz with Axon Digidata1440A and pClamp10. […] Drugs (agonists and antagonists) were prepared daily in OR2. Drug was applied using a Valvelink 8.2 perfusion system (Automate scientific, Berkeley, CA). […] Then for the purpose of comparison electrophysiological recordings were performed in a given day in a given batch of oocytes following the same order of injections. […] All hβ4*-nAChR recordings were done in similar conditions to facilitate comparisons between hα6hβ4- and hα6hβ4hβ3-nAChRs. All electrophysiological measurements were conducted or checked in at least two batches of oocytes.
(§3) Raw data was collected and processed in part using pClamp 10.2 (Molecular Devices, Sunnyvale, CA), Origin 7.5 (OriginLab Corporation, Northampton, MA) and a spreadsheet (Excel; Microsoft, Bellevue, WA). Peak current amplitudes (Imax) are reported as mean ± SEM (for results from at least three oocytes, i.e., n = 3).

hα6(D199Y) + hβ4 nAChR = hα6(D199Y) + hβ4 nAChR (Homo sapiens, UniProt P30926+Q15825, D199Y); assay: Oocyte two-electrode voltage clamp; assay type: cell-based
Sequence of hα6(D199Y) + hβ4 nAChR (Q15825 26-494 D199Y): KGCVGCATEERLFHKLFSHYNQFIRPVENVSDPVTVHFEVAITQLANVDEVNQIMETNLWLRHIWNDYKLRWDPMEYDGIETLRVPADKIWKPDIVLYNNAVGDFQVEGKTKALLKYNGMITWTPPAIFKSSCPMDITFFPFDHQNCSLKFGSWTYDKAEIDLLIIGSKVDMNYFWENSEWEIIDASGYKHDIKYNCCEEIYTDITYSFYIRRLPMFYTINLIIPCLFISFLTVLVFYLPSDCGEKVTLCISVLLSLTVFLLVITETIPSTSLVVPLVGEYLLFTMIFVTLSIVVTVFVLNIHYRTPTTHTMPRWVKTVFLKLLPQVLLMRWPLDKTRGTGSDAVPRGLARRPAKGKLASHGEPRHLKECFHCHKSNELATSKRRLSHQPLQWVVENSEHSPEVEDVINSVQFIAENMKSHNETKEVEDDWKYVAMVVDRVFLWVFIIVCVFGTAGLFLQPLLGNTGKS
Sequence of hα6(D199Y) + hβ4 nAChR (P30926 22-498): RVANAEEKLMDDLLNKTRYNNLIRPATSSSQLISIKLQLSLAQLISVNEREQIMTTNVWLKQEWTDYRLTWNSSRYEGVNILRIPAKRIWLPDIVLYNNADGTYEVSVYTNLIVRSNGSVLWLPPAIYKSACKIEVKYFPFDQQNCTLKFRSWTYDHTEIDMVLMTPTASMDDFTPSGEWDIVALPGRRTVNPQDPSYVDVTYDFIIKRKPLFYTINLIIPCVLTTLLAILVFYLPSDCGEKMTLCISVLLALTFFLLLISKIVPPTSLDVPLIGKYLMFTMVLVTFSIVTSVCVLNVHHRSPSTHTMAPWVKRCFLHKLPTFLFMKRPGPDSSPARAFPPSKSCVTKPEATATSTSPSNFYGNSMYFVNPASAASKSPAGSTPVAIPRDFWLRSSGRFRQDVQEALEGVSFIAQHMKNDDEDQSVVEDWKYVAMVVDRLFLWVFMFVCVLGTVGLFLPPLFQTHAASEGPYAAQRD
Experimental: as §1, §2, §3

[1] = molecular target: hα6(S233C) + hβ4 + hβ3 nAChR (Homo sapiens, UniProt P30926+Q15825, S233C); assay: Oocyte two-electrode voltage clamp; assay type: cell-based
Sequence of hα6(S233C) + hβ4 + hβ3 nAChR (Q15825 26-494 S233C): as the sequence (Q15825 26-494 D199Y) above, with Y174D, S208C counted along it
Sequence of hα6(S233C) + hβ4 + hβ3 nAChR (P30926 22-498): as the sequence (P30926 22-498) above
Sequence of hα6(S233C) + hβ4 + hβ3 nAChR (Q05901 25-458 partner limits assumed): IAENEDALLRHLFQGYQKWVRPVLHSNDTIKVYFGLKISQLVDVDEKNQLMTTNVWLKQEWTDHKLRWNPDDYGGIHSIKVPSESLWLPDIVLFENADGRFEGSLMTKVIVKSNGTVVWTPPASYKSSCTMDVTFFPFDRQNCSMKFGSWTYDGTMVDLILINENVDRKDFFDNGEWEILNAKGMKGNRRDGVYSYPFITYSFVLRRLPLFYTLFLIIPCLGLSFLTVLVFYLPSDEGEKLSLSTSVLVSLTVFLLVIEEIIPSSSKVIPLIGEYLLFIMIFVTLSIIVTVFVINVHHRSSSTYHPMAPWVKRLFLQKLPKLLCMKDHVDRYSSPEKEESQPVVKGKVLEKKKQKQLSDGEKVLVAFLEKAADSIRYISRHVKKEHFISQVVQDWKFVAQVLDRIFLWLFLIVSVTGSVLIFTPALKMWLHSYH
Experimental: as §1, §2, §3

[2] = molecular target: hα6(D199Y) + hβ4 + hβ3 nAChR (Homo sapiens, UniProt P30926+Q15825, D199Y); assay: Oocyte two-electrode voltage clamp; assay type: cell-based
Sequence of hα6(D199Y) + hβ4 + hβ3 nAChR (Q15825 26-494 D199Y): as the sequence (Q15825 26-494 D199Y) above
Sequence of hα6(D199Y) + hβ4 + hβ3 nAChR (P30926 22-498): as the sequence (P30926 22-498) above
Sequence of hα6(D199Y) + hβ4 + hβ3 nAChR (Q05901 25-458 partner limits assumed): as the sequence (Q05901 25-458 partner limits assumed) above
Experimental: as §1, §2, §3

hα6 + hβ4 nAChR = hα6 + hβ4 nAChR (Homo sapiens, UniProt P30926+Q15825); parameters: method as in Kuryatov et al. (2000) [29]; conditions: ref Kuryatov et al. (2000) [29]; cited from earlier work
[3] = molecular target: hα6(N171K) + hβ4 + hβ3 nAChR (Homo sapiens, UniProt P30926+Q15825, N171K); conditions: nicotine
Experimental: as §1, §2, §3

[4] = molecular target: hα6(A184D) + codon optimized hβ2 + hβ3^V9’S nAChR (Homo sapiens, UniProt P17787+Q15825, A184D); conditions: 100 μM nicotine; oocytes clamped at −70 mV
Experimental: as §1, §2, §3

hα6(E101K) + hβ4 nAChR = hα6(E101K) + hβ4 nAChR (Homo sapiens, UniProt P30926+Q15825, E101K); conditions: 100 μM nicotine; oocytes clamped at −70 mV
Experimental: as §1, §2, §3

[5] = tested on: hα6(S233C) + WT hβ2 + hβ3^V9’S nAChR; conditions: 100 μM nicotine; higher, p < 0.05
Experimental: as §1, §2, §3

[6] = molecular target: hα6(D92E) + WT hβ2 + hβ3^V9’S nAChR (Homo sapiens, UniProt P17787+Q15825, D92E); conditions: nicotine
Experimental: as §1, §2, §3

[7] = molecular target: hα6(R96H) + codon optimized hβ2 + hβ3^V9’S nAChR (Homo sapiens, UniProt P17787+Q15825, R96H); conditions: 100 μM nicotine; oocytes clamped at −70 mV
Experimental: as §1, §2, §3

[8] = tested on: hα6(R96H) + WT hβ2 + hβ3^V9’S nAChR; conditions: 100 μM nicotine; higher, p < 0.05
Experimental: as §1, §2, §3

[9] = molecular target: hα6(N203T) + codon optimized hβ2 + hβ3^V9’S nAChR (Homo sapiens, UniProt P17787+Q15825, N203T); conditions: 100 μM nicotine; oocytes clamped at −70 mV
Experimental: as §1, §2, §3

[10] = molecular target: hα6(N46K) + hβ4 + hβ3 nAChR (Homo sapiens, UniProt P30926+Q15825, N46K); conditions: 100 μM nicotine; oocytes clamped at −70 mV
Experimental: as §1, §2, §3

[11] = molecular target: hα6(D57N) + hβ4 + hβ3 nAChR (Homo sapiens, UniProt P30926+Q15825, D57N); conditions: nicotine
Sequence of hα6(D57N) + hβ4 + hβ3 nAChR (Q15825 26-494 D57N): as the sequence (Q15825 26-494 D199Y) above, with D32N, Y174D counted along it
Sequence of hα6(D57N) + hβ4 + hβ3 nAChR (P30926 22-498): as the sequence (P30926 22-498) above
Experimental: as §1, §2, §3

[12] = molecular target: hα6(N46K) + WT hβ2 + hβ3^V9’S nAChR (Homo sapiens, UniProt P17787+Q15825, N46K); conditions: nicotine
Experimental: as §1, §2, §3

[13] = 100 μM nicotine, oocytes clamped at −70 mV

Q: Which results are given for `CN1CCC[C@H]1c1cccnc1` [nicotine, L-nicotine]?
A: EC50 (hα6 + hβ4 + hβ3 nAChR): 12 µM; Imax conc. (concentration where maximal peak current achieved) (hα6 + hβ4 + hβ3 nAChR): 100 µM; nH ± SE (Hill coefficient) (hα6 + hβ4 + hβ3 nAChR): 1.5±0.45; increase of peak current response relative to hα6hβ4-nAChRs (hα6 + hβ4 + hβ3 nAChR; 100 μM nicotine): ~ 12 fold; Mean (±SE) peak current response (hα6 + hβ4 + hβ3 nAChR; [13]): 407 ± 34 nA; EC50 (hα6(D199Y) + hβ4 nAChR): 4.4 µM; Imax conc. (concentration where maximal peak current achieved) (hα6(D199Y) + hβ4 nAChR): 100 µM; nH ± SE (Hill coefficient) (hα6(D199Y) + hβ4 nAChR): 1.1±0.26; peak current (Imax, mean ± SE) (hα6(D199Y) + hβ4 nAChR; [13]): 90 ± 11 nA; EC50 [1]: 6.9 µM; Imax conc. (concentration where maximal peak current achieved) [1]: 100 µM; nH ± SE (Hill coefficient) [1]: 1.4±0.12; Mean (±SE) peak current response [1, 13]: 536 ± 66 nA; EC50 [2]: 11 µM; Imax conc. (concentration where maximal peak current achieved) [2]: 100 µM; nH ± SE (Hill coefficient) [2]: 1.5±0.42; Mean (±SE) peak current response [2, 13]: 276 ± 47 nA; EC50 (hα6 + hβ4 nAChR): 7.1 µM; current response [3]: did not elicit current responses; peak current (Imax, mean ± SE) [4]: 616 ± 95 nA; peak current (Imax, mean ± SE) (hα6(E101K) + hβ4 nAChR): 73 ± 10 nA; peak current response relative to hα6hβ2hβ3^V9’S-nAChRs [5]: 2-5 fold; current response [6]: did not yield current responses; peak current (Imax, mean ± SE) [7]: 1075 ± 175 nA; peak current response relative to hα6hβ2hβ3^V9’S-nAChRs [8]: 2-5 fold; peak current (Imax, mean ± SE) [9]: 762 ± 253 nA; Mean (±SE) peak current response [10]: 307 ± 39 nA; current response [11]: did not elicit current responses; current response [12]: did not yield current responses
